In patent US10189809B2, “SGC stimulators” (Ironwood Pharmaceuticals, Inc., priority 2010, dated 2019):
Read-outs that look alike come from different tables or passages of the source.

Assays:
[1] = biological target: T1, soluble guanylate cyclase (sGC) (Homo sapiens (Human), UniProt Q02108+Q02153); assay: sGC-HEK-cGMP assay run in the absence of SNP (HEK WC assay); type: cell-based; details: compound at 30 μM, absence of SNP
Method in brief: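 HEK293 cells with endogenous sGC, preincubated 15 min at 37° C with 0.5 mM IBMX, then exposed to test compound 10 min at 37° C without SNP. Cells lysed in 0.1 M HCl; cGMP quantified by LC/MS against a standard curve. EC50 from concentration-response curves.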

[2] = biological target: T1, soluble guanylate cyclase (sGC); assay: sGC-HEK-cGMP assay run with SNP incubation (HEK WC assay); type: cell-based; details: for HEK WC Assay (fold increase at 30 μM in the presence of 10 μM SNP): compound at 30 μM; for EC50: in the presence of 10 uM SNP
Method in brief: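 HEK293 cells with endogenous sGC were pretreated with 0.5 mM IBMX for 15 min at 37 °C, then exposed to test compound plus sodium nitroprusside for 10 min at 37 °C.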

Thoracic aortic rings = assay: Alternative thoracic aortic rings assay (Example 19b; resting tension as 100% inhibition); design: species or system rat; details: Rattus norvegicus, Table 10B; for inhibition at 1 µM: read-out: Percent Relaxation at 1 μM; for inhibition at 3 µM: read-out: Percent Relaxation at 3 μM; for EC50: read-out: Aortic Ring EC50; for inhibition at 10 µM: read-out: Percent Relaxation at 10 μM
Method in brief: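 Aortic rings (~2 mm) from male Sprague-Dawley rats (275-299 g) held at 1.0 g resting tension in Krebs-Henseleit at 37 °C under 95% O2/5% CO2, then precontracted with 100 ng/mL phenylephrine. Compounds in DMSO added cumulatively; relaxation recorded by force transducer and EC50 taken from concentration-response curves.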

[3] = read-out: HEK WC Assay (% Emax at 10 μM with 10 uM SNP)
[4] = read-out: HEK WC Assay (% Emax at 30 μM with 10 uM SNP)
[5] = read-out: HEK WC Assay (% Emax at 1 μM with 10 uM SNP)

T1 sequence (Q02153 whole entry): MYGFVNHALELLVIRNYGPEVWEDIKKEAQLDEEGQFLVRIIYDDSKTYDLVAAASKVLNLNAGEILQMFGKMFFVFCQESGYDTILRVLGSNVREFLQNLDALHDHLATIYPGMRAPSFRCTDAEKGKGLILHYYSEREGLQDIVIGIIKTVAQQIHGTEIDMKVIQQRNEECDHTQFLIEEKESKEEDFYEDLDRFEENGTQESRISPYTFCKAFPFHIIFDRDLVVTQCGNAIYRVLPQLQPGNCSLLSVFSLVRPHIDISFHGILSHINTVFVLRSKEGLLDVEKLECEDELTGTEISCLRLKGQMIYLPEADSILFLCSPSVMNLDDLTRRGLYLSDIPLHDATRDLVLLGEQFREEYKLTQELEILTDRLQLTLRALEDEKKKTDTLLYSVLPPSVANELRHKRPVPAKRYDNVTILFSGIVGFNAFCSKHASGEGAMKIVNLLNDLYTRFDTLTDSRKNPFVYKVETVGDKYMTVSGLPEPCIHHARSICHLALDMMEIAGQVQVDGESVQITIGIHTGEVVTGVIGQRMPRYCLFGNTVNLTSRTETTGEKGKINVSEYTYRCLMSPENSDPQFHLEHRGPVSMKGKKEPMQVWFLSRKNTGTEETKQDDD
T1 sequence (Q02108 whole entry): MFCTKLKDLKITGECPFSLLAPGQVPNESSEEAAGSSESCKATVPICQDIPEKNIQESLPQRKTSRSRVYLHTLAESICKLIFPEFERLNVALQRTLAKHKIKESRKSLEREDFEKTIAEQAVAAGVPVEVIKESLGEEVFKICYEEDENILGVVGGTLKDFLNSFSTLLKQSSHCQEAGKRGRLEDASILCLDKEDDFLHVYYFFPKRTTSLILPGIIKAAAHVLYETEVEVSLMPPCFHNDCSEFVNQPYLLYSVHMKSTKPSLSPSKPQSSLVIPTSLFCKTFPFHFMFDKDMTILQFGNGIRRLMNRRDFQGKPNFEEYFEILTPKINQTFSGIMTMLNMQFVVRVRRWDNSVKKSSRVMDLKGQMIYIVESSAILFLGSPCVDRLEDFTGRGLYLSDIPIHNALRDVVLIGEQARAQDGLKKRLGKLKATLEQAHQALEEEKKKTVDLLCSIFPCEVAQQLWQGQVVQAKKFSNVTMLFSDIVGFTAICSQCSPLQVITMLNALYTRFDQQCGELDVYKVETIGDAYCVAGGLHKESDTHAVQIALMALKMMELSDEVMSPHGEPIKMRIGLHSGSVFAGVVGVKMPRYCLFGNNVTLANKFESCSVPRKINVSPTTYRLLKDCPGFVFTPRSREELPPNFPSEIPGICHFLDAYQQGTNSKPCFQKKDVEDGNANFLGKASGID

| Structure (SMILES) | HEK WC Assay (fold increase at 30 μM in the absence of SNP) [1] | HEK WC Assay (fold increase at 30 μM in the presence of 10 μM SNP) [2] | EC50 [2] [µM] | Emax [2, 3] [%] | Emax [2, 4] [%] | inhibition at 1 µM (Thoracic aortic rings) [%] | inhibition at 3 µM (Thoracic aortic rings) [%] | EC50 (Thoracic aortic rings) [µM] | Emax [2, 5] [%] | inhibition at 10 µM (Thoracic aortic rings) [%] |
| --- | --- | --- | --- | --- | --- | --- | --- | --- | --- | --- |
| COC(=O)Nc1cnc(-c2cc(-c3ccon3)n(Cc3ccccc3F)n2)nc1N [Compound I-142] | E (E = 10 to <20 fold increase) | F (F = 20 to <30 fold increase) | < 20 | 100 to 120 | 100 to 120 | 80 to 100 | 100 to 120 | < 2 |  |  |
| O=C(Nc1cnc(-c2cc(-c3ccon3)n(Cc3ccccc3F)n2)nc1O)c1ccccc1 [Compound I-158] | C (C = 2 to <5 fold increase) |  | 100 to 300 | 20 to 40 | 20 to 40 | 10 to 20 | 40 to 60 | 4 to 8 | 0 to 10 | 80 to 100 |
| CC1(C(=O)Nc2cnc(-c3cc(-c4ccon4)n(Cc4ccccc4F)n3)nc2N)CC1 [Compound I-206] | E (E = 10 to <20 fold increase) | F (F = 20 to <30 fold increase) | < 20 | 100 to 120 | 100 to 120 | 20 to 40 | 60 to 80 | < 2 | 100 to 120 | 80 to 100 |
| COCC(=O)Nc1cnc(-c2cc(-c3ccon3)n(Cc3ccccc3F)n2)nc1N [Compound I-177] | D (D = 5 to <10 fold increase) | E (E = 10 to <20 fold increase) | < 20 | 80 to 100 | 80 to 100 | 80 to 100 | 80 to 100 | < 2 | 40 to 60 |  |
| CC(C)C(=O)Nc1cnc(-c2cc(-c3ccon3)n(Cc3ccccc3F)n2)nc1N [Compound I-165] | D (D = 5 to <10 fold increase) | F (F = 20 to <30 fold increase) | < 20 | 80 to 100 | 100 to 120 | 60 to 80 | 80 to 100 | < 2 | 40 to 60 | 100 to 120 |
| Nc1nc(-c2cc(-c3ccon3)n(Cc3ccccc3F)n2)ncc1NC(=O)c1ccc(F)cc1 [Compound I-168] | E (E = 10 to <20 fold increase) | G (G = 30 to <40 fold increase) | < 20 | 100 to 120 | 100 to 120 | 60 to 80 | 100 to 120 | < 2 | 100 to 120 | 100 to 120 |
| Nc1nc(-c2cc(-c3ccon3)n(Cc3ccccc3F)n2)ncc1NC(=O)C1(C(F)(F)F)CC1 [Compound I-237] | E (E = 10 to <20 fold increase) | F (F = 20 to <30 fold increase) | < 20 | 100 to 120 | 100 to 120 | 60 to 80 | 80 to 100 | < 2 | 80 to 100 | 100 to 120 |
| Fc1ccccc1Cn1nc(-c2ccccn2)cc1-c1ncon1 [Compound I-304] | C (C = 2 to <5 fold increase) | E (E = 10 to <20 fold increase) | 20 to 40 | 20 to 40 | 40 to 60 | 20 to 40 | 60 to 80 | < 2 |  | 80 to 100 |
| Oc1nc(-c2cc(-c3ccon3)n(Cc3ccccc3F)n2)ncc1C(F)(F)F [Compound I-216] | C (C = 2 to <5 fold increase) | E (E = 10 to <20 fold increase) | < 20 | 40 to 60 | 40 to 60 | 40 to 60 | 80 to 100 | < 2 | 20 to 40 | 100 to 120 |
| Nc1nc(-c2cc(-c3ccon3)n(Cc3ccccc3F)n2)ncc1NC(=O)c1ccncc1 [Compound I-176] | E (E = 10 to <20 fold increase) | E (E = 10 to <20 fold increase) | < 20 | 60 to 80 | 60 to 80 | 80 to 100 | 100 to 120 | < 2 | 20 to 40 |  |
| Nc1ccnc(-c2cc(-c3cnco3)n(Cc3ccccc3F)n2)n1 [Compound I-296] | C (C = 2 to <5 fold increase) | E (E = 10 to <20 fold increase) | < 20 | 20 to 40 | 60 to 80 | 20 to 40 | 40 to 60 |  |  | 80 to 100 |
| Nc1nc(-c2cc(-c3ccon3)n(Cc3ccccc3F)n2)ncc1NC(=O)c1ccccn1 [Compound I-162] | E (E = 10 to <20 fold increase) | G (G = 30 to <40 fold increase) | < 20 | 80 to 100 | 60 to 80 | 100 to 120 | > 120 | < 2 |  |  |
| O=S(=O)(c1ccccc1)c1cnc(-c2cc(-c3ccon3)n(Cc3ccccc3F)n2)nc1O [Compound I-217] | D (D = 5 to <10 fold increase) | F (F = 20 to <30 fold increase) | < 20 | 100 to 120 |  | 40 to 60 | 60 to 80 | < 2 | 60 to 80 | 80 to 100 |
| CC(C)(C)OC(=O)Nc1cnc(-c2cc(-c3ncco3)n(Cc3ccccc3F)n2)nc1N [Compound I-148] | D (D = 5 to <10 fold increase) | E (E = 10 to <20 fold increase) | < 20 | 100 to 120 | 100 to 120 | 80 to 100 | 80 to 100 | < 2 |  |  |
| Nc1nc(-c2cc(-c3ncco3)n(Cc3ccccc3F)n2)ncc1NC(=O)c1ccccc1 [Compound I-186] | D (D = 5 to <10 fold increase) | F (F = 20 to <30 fold increase) | < 20 | 60 to 80 | 80 to 100 | 60 to 80 | 80 to 100 | < 2 | 60 to 80 | 100 to 120 |
| Nc1nc(-c2cc(-c3ccon3)n(Cc3ccccc3F)n2)ncc1N1CCOC1=O [Compound I-153] | C (C = 2 to <5 fold increase) | D (D = 5 to <10 fold increase) | < 20 | 40 to 60 | 60 to 80 | 60 to 80 | 60 to 80 | < 2 |  | 80 to 100 |
| CS(=O)(=O)c1cnc(-c2cc(-c3ccon3)n(Cc3ccccc3F)n2)nc1O [Compound I-196] | C (C = 2 to <5 fold increase) | E (E = 10 to <20 fold increase) | < 20 | 60 to 80 | 80 to 100 | 60 to 80 | 80 to 100 | < 2 | 20 to 40 | 80 to 100 |
| Cc1ccccc1C(=O)Nc1cnc(-c2cc(-c3ccon3)n(Cc3ccccc3F)n2)nc1N [Compound I-184] | E (E = 10 to <20 fold increase) | E (E = 10 to <20 fold increase) | < 20 | 100 to 120 | 80 to 100 | 80 to 100 | 100 to 120 | < 2 | 60 to 80 |  |
| CC(C)COC(=O)Nc1cnc(-c2cc(-c3ccon3)n(Cc3ccccc3F)n2)nc1N [Compound I-150] | E (E = 10 to <20 fold increase) | E (E = 10 to <20 fold increase) | < 20 | 80 to 100 | 80 to 100 | 40 to 60 | 80 to 100 | < 2 |  | 80 to 100 |
| Nc1nc(-c2cc(-c3ncco3)n(Cc3ccccc3F)n2)ncc1F [Compound I-147] | D (D = 5 to <10 fold increase) | E (E = 10 to <20 fold increase) | < 20 | 80 to 100 | 60 to 80 | 60 to 80 | 80 to 100 | < 2 |  | 80 to 100 |
